Laboratory results as given in ChEMBL document CHEMBL1130692, “Novel B-ring modified combretastatin analogues: syntheses and antineoplastic activity” (Bioorg Med Chem Lett, 1998).

Tests used:
Colon 26 = test: Cytotoxic activity was determined against Colon 26 adenocarcinoma cells; format: functional, cell-based; details: Mus musculus
Bos taurus = species: Bos taurus; test: Inhibitory activity was determined against tubulin polymerization of bovine brain tubulin; format: functional

| SMILES | IC50 (Colon 26) [nM] | IC50 (Bos taurus) [nM] |
| --- | --- | --- |
| COc1cnc(/C=C\c2cc(OC)c(OC)c(OC)c2)nc1 | > 3000 | > 10000 |
| COc1ccc(/C=C\c2cc(OC)c(OC)c(OC)c2)cn1 | 29.2 | 2000 |
| COc1cc(/C=C\c2ccc(=O)n(C)c2)cc(OC)c1OC | > 3000 | > 10000 |
| COc1ccc(/C=C\c2cc(OC)c(OC)c(OC)c2)nn1 | > 3000 | > 10000 |
| COc1cc(/C=C\c2cc[n+]([O-])cc2)cc(OC)c1OC | > 3000 | > 10000 |
| COc1cnc(/C=C\c2cc(OC)c(OC)c(OC)c2)cn1 | 880 | 9000 |
| COc1ncc(/C=C\c2cc(OC)c(OC)c(OC)c2)cn1 | 275 | 3000 |
| COc1ccc(/C=C\c2cc(OC)c(OC)c(OC)c2)nc1 | 182 | 3000 |
| COc1cc(/C=C\c2cc[n+](C)cc2)cc(OC)c1OC | > 3000 | – |
| COc1cc(/C=C\c2ccn(C)c(=O)c2)cc(OC)c1OC | 19.2 | 2000 |
| COc1ccc(/C=C\c2cc(OC)c(OC)c(OC)c2)cc1N | – | 1000 |
| COc1ccc(/C=C\c2cc(OC)c(OC)c(OC)c2)cc1O [COMBRETASTATIN A4] | 8.7 | 2000 |
